Laboratory results from patent EP1649856A2, “Use of pimecrolimus for selective immunomodulation” (Novartis AG, priority 2001, dated 2002).

Tests used:
promoter for human IL-2 = assay: IL-2 reporter gene assay; format: cell-based; settings: concentration required for 50% inhibition
From the text: This assay method is disclosed and enabled in U.S. Patent No. 5,897,990, which is hereby incorporated by reference in its entirety and for all purposes.
The cell line is preferentially a human T-cell or macrophage cell line, e.g., a Jurkat cell line, preferably selected for high native production of the desired gene product, for example, producing IL-2 in response to stimulation in the case of an IL-2 reporter gene assay. The reporter gene is any gene expressing a readily observable product, e.g., an enzyme marker such as β-galactosidase or luciferase, or any other suitable enzyme marker. For example, where the enzyme marker is β-galactosidase, the reporter gene is, e.g., a bacterial lacZ gene; where the enzyme marker is luciferase, the gene is, e.g., a Phorinus luciferase gene. Another suitable marker is the gene for the green fluorescent protein produced by the bioluminescent jellyfish, e.g., as described in Chalfie et al., Science, Vol. 263, pp. 802-805 (1994). The promoter gene is a promoter gene for a cytokine or protein for which transcription is stimulated or suppressed by the drug to be monitored.
Blood samples from the patient are diluted, their effect on gene expression in the above described system is measured, and the assay is standardized using known concentrations of the immunosuppressive material.

[1] = Pharmacokinetics after multiple oral administrations to psoriatic patients for 28 days; format: in vivo, human
Method: Table 4. Summary of Cmax and AUCτ Following Multiple Oral Administrations of Pimecrolimus to Psoriatic Patients for 28 Days
In this study pimecrolimus was rapidly absorbed with a median tmax across all the dose groups and collection days of between 0.8 and 2.0 hours. […] There was no effect of age or weight on the apparent clearance of pimecrolimus.

[2] = system: eosinophil influx into the lungs; assay: Aeroallergen induced eosinophil influx into the lungs of sensitized mice; format: in vivo; settings: oral administration
From the text: Direct evidence on the efficacy on pimecrolimus in asthma is provided by studies showing the effect on lung eosinophilia rats. One study looked at the inhibitory effect of pimecrolimus on the aeroallergen induced eosinophil influx into the lungs of sensitized mice.

in vivo = assay: in vivo; design: species or system rats
Method: In another study designed to explore the differences between pimecrolimus and FK506 and to determine whether these differences might be associated with a different tissue distribution, the exposure to pimecrolimus and FK506 in various organs after oral administration were measured. Animals received 2 oral doses of 25 mg/kg in an interval of 2 hours. […] Pimecrolimus was found consistently to have a higher skinlblood concentration ratio than FK506 (2 hours: 7.3 vs. 2.8; 6 hours: 13 vs. 1.6; 24 hours: 36 vs. 6.0). The AUC0-24h in skin calculated for pimecrolimus was twice as high as with FK506.
These distribution characteristics are relevant not only for oral, but also for topical application, as the compound enters systemic circulation after permeation through the skin.

[3] = format: in vitro ADME, human
From the text: Pimecrolimus, when applied topically, permeates less through human (and animal) skin than, for example, FK506 and corticosteroids by factors of 9 and 60-120, respectively, indicating a lower potential to enter the systemic circulation and thus to exert systemic side effects. As is well-known, glucocorticoids are non-selective agents and are therefore associated with many systemic actions and a wide variety of side effects, whether applied topically or systemically. This is in contrast to pimecrolimus.

[4] = system: allergic contact dermatitis (ACD); assay: Mouse model of allergic contact dermatitis (ACD); format: in vivo; settings: oral, same doses
[5] = system: mixed-lymphocyte reaction; assay: mixed-lymphocyte reaction (MLR) assay; format: cell-based; settings: Mus musculus
From the text: In addition to the IL-2 reporter gene assay, the concentration of immunosuppressants, such as pimecrolimus and FK506 can be measured by the mixed-lymphocyte reaction (see Meo, The MLR in the Mouse", Immunological Methods, Lefkovits and Pemis, Eds., p. 227 Academic Press, NY).

[6] = Clinical study of oral pimecrolimus in psoriasis patients (efficacy and safety)
Method: A clinical study was initiated with an oral formulation of pimecrolimus to treat psoriatic patients. Pimecrolimus was evaluated as treatment for psoriasis using an oral dose of 60 mg (30 mg b.i.d) during a 4-week clinical study. The cohort included 10 patients; 8 received the treatment and 2 received a placebo.
The dose used in the study was 60 mg/day, given as 30 mg b.i.d. To make this dose the 20 mg tablets were cut in half using a special cutter (Tablettenteiler NR.96) so as to obtain 30 mg of pimecrolimus or a matched amount of placebo.

blood cells = settings: 30 mg b.i.d. oral
Method: Pimecrolimus was evaluated as treatment for psoriasis using an oral dose of 60 mg (30 mg b.i.d) during a 4-week clinical study. The cohort included 10 patients; 8 received the treatment and 2 received a placebo. Blood samples were collected before the first administration to establish the gene expression baseline and on days 13 or 14 after treatment with pimecrolimus or placebo and submitted to gene expression analysis in order to gain insights into the mechanisms of action of the compound.
The RNA from blood samples drawn from each patient in the study was extracted and tested on individual DNA microarrays, thus allowing, for each patient, a comparison of gene expression before and after pimecrolimus treatment. […] Genes that were consistently modulated were sorted in functional categories.

[7] = system: allergic contact dermatitis (ACD); assay: Rat ACD model; format: in vivo
[8] = 20 mg b.i.d. oral, Day 13, Mean ± SD, 18720 min
[9] = 20 mg b.i.d. oral, Day 28, Mean ± SD, 40320 min
[10] = human, blood, 5 mg q.d. oral, Day 1, Mean ± SD
[11] = human, blood, 5 mg q.d. oral, Day 13, Mean ± SD
[12] = human, blood, 5 mg q.d. oral, Day 28, Mean ± SD
[13] = human, blood, 10 mg q.d. oral, Day 1, Mean ± SD
[14] = human, blood, 10 mg q.d. oral, Day 28, Mean ± SD
[15] = human, blood, 20 mg q.d. oral, Day 13, Mean ± SD
[16] = human, blood, 20 mg q.d. oral, Day 28, Mean ± SD
[17] = human, blood, 30 mg b.i.d. oral, Day 1, Mean ± SD
[18] = human, blood, 30 mg b.i.d. oral, Day 13, Mean ± SD
[19] = human, blood, 30 mg b.i.d. oral, Day 28, Mean ± SD

With `CC[C@@H]1/C=C(\C)C[C@H](C)C[C@H](OC)[C@H]2O[C@@](O)(C(=O)C(=O)N3CCCC[C@H]3C(=O)O[C@H](/C(C)=C/[C@@H]3CC[C@H](Cl)[C@H](OC)C3)[C@H](C)[C@@H](O)CC1=O)[C@H](C)C[C@@H]2OC` [pimecrolimus, 33-epichloro-33-desoxy-ascomycin] the IC50 (promoter for human IL-2) was 1.5 nM, the “AUCτ,b” value ([1]; 20 mg b.i.d. oral, Day 1, Mean ± SD, 1440 min) was 139.9 ± 39.2 ng·h/mL and the “AUCτ,b” value [1, 8] was 259.6 ± 122.6 ng·h/mL. For the same compound, the “Cmax,b” value [1, 8] was 54.7 ± 36.3 ng/mL, the “AUCτ,b” value [1, 9] was 229.5 ± 90.9 ng·h/mL and the “Cmax,b” value [1, 9] was 41.7 ± 16.5 ng/mL. For the same compound, the “mean AUC at steady-state over 24 hours” value ([1]; 30 mg b.i.d., day 28, calculated assuming identical AUCτ for morning and evening doses) was ~562 ng·h/mL, the AUC at 24 h ([1]; human, blood, po, 30 mg b.i.d., day 13, calculated assuming identical AUCτ for morning and evening doses, read-out: mean AUC at steady-state over 24 hours) was ~590 ng·h/mL and the Tmax ([1]; human, blood, po, across all the dose groups and collection days, read-out: median tmax) was 0.8 to 2 h. For the same compound, the concentration at 504 h ([1]; human, blood, po, day 21 of the 30 mg BID dose schedule, read-out: highest median blood trough concentration) was 18 ng/mL, the half-life ([1]; human, blood, po, recorded after the final dose, read-out: terminal half-life) was 50 to 100 h and the AUC tau at 24 h [1, 10] was 23.3 ± 13 ng·h/mL. For the same compound, the Cmax at 24 h [1, 10] was 8.7 ± 2.3 ng/mL, the AUC tau at 312 h [1, 11] was 44.5 ± 18.2 ng·h/mL and the Cmax at 312 h [1, 11] was 9.7 ± 2.5 ng/mL. It also gave an AUC tau at 672 h [1, 12] of 35.5 ± 15.8 ng·h/mL, a Cmax at 672 h [1, 12] of 9.9 ± 4.8 ng/mL and an AUC tau at 24 h [1, 13] of 80.6 ± 31.4 ng·h/mL. For the same compound, the Cmax at 24 h [1, 13] was 25.9 ± 8.5 ng/mL, the Cmax at 312 h ([1]; human, blood, 10 mg q.d. oral, Day 13, Mean ± SD) was 21.8 ± 7.9 ng/mL and the AUC tau at 672 h [1, 14] was 90.9 ± 35.4 ng·h/mL. The Cmax at 672 h [1, 14] was 24 ± 9.2 ng/mL, the Cmax at 24 h ([1]; human, blood, 20 mg b.i.d. oral, Day 1, Mean ± SD) was 41.3 ± 16 ng/mL and the AUC tau at 24 h ([1]; human, blood, 20 mg q.d. oral, Day 1, Mean ± SD) was 173 ± 56 ng·h/mL. The AUC tau at 312 h [1, 15] was 253 ± 40.1 ng·h/mL, the Cmax at 312 h [1, 15] was 55.3 ± 21.4 ng/mL and the AUC tau at 672 h [1, 16] was 258 ± 65.9 ng·h/mL. For the same compound, the Cmax at 672 h [1, 16] was 58.3 ± 25.4 ng/mL, the AUC tau at 24 h [1, 17] was 206 ± 64 ng·h/mL and the Cmax at 24 h [1, 17] was 49.1 ± 21.6 ng/mL. It also gave an AUC tau at 312 h [1, 18] of 295 ± 60.1 ng·h/mL, a Cmax at 312 h [1, 18] of 54.5 ± 27 ng/mL and an AUC tau at 672 h [1, 19] of 281 ± 32.8 ng·h/mL. For the same compound, the Cmax at 672 h [1, 19] was 41.1 ± 8.4 ng/mL, the AUC(0-t) at 24 h ([1]; human, blood, psoriatic patients, oral, read-out: AUC(0-24) associated with a significant clinical response in the target epithelial tissue) was ≥ 400 ng·h/mL and the “Trough concentrations associated with a significant clinical response in the target epithelial tissue” value ([1]; human, in vivo, po) was ≥ 7 ng/mL. For the same compound, the “eosinophil count in the lung and eosinophil peroxidase activity” value [2] was “able to reduce”, the “AUC0-24h in skin compared with FK506” value (in vivo; 2 oral doses of 25 mg/kg) was “twice as high” and the “exposure in all other tissues, including blood, lymph nodes and kidney, compared with FK506” value (in vivo; 2 oral doses of 25 mg/kg) was “lower”. The Kp at 2 h (in vivo; rat, skin, 2 oral doses of 25 mg/kg in an interval of 2 hours, 2 hours after the last dosing, read-out: skinlblood concentration ratio) was 7.3, the Kp at 6 h (in vivo; rat, skin, 2 oral doses of 25 mg/kg in an interval of 2 hours, 6 hours after the last dosing, read-out: skinlblood concentration ratio) was 13 and the Kp at 24 h (in vivo; rat, skin, 2 oral doses of 25 mg/kg in an interval of 2 hours, 24 hours after the last dosing, read-out: skinlblood concentration ratio) was 36. For the same compound, the “factor by which it permeates less through skin than FK506” value [3] was 9, the “factor by which it permeates less through skin than corticosteroids” value [3] was 60-120 and the “efficacy compared with FK506” value [4] was “equipotent”. For the same compound, the IC50 [5] was 9 nM, the “clinical effect on psoriasis” value ([6]; oral 60 mg (30 mg b.i.d), 4-week study, 8 treated patients) was “reduction of psoriasis” and the tolerability in man ([6]; oral dosing up to 60 mg (or 30 mg b.i.d.) over 28 days) was “well-tolerated”. For the same compound, the “toxic effect in the expression profile” value (blood cells) was “No obvious toxic effect”, the “expression of genes involved in asthma and IBD (RANTES, GALECTIN-3, Thromboxane A2 receptor, Glutathione peroxidase)” value (blood cells; days 13 or 14 vs baseline) was “specifically and significantly down-regulated” and the “expression of inflammatory mediators (Leukotriene A4 hydrolase, prostaglandin endoperoxide synthase)” value (blood cells; days 13 or 14 vs baseline) was “strongly down regulate”. For the same compound, the “efficacy compared with FK506” value ([7]; oral, same doses, rat ACD model) was “superior” and the “efficacy relative to oral CyA” value ([7]; rat ACD (12.5 mg/kg pimecrolimus similar to 50 mg/kg CyA)) was 4 fold.
